The target in the experiment is T1, ERRα ligand binding domain (ERRα-LBD) (Homo sapiens, UniProt P11474).
T1 construct: made in house; host or cells: E. coli
T1 sequence (P11474 193-421 limits assumed): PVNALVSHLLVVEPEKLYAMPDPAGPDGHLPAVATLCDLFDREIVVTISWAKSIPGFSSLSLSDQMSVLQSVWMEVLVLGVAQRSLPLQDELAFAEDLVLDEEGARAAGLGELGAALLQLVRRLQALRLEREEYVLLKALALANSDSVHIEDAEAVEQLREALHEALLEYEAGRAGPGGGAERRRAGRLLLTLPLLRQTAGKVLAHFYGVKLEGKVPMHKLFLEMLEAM
Briefly: ERRα AlphaScreen Assay. The format is biochemical. As to conditions: disruption of binding of ERRα-LBD protein to biotin-PGC1α-3 co-activator peptide; read-out: mean pIC50 (converted). The text has this: This assay was based on the knowledge that nuclear receptors interact with cofactors in a ligand dependent matter. The sites of interaction have been mapped to LXXLL motifs that are present in the co-activator sequences. Short peptide sequences that contain the LXXLL motif mimic the behavior of full length co-activators.
The ERRα AlphaScreen Assay described here relies on the interaction of the co-activator peptide with purified bacterial- expressed ERRα ligand binding domain (ERRα-LBD); upon ligand binding, the ERRα protein can undergo a conformational change resulting in a loss of co-activator binding.
Compounds of the present invention were tested for their ability to disrupt binding of ERRα-LBD protein to co-activator peptide using AlphaScreen® Technology (Perkin Elmer). ERRα-LBD protein was expressed in E. coli as a 6×His Small Ubiquitin-like Modifier (SUMO) fusion. Bacterial expressed 6His-SUMO-ERRα-LBD protein was purified using affinity chromatography. All experiments were performed at room temperature in 384-well white non-binding plates (Greiner) using 50 mM Tris-HCl pH 7.5, 100 mM NaCl, 0.1% Pluronic F-127, 0.05% BSA and 5 mM TCEP as the buffer. Final DMSO concentration was 1% in the assay. Compounds were assayed in triplicate and: incubated with 0.81 nM ERRα-LBD protein and 10 μg/mL streptavidin donor beads and 10 μg/mL Ni-chelate acceptor beads for 1 hour at room temperature; followed by a 2-hour incubation with 15 nM biotin-PGC1α-3 peptide (QRRPCSELLKYLTTNDDPP) corresponding to amino acids 202 to 220.
The AlphaScreen signal was measured using an Envision Xcite plate reader (Perkin Elmer). Data was normalized, and curve fitting analysis was performed in GraphPad Prism 7 using a four-parameter dose-response fit.

Regarding `O=C1CC(c2ccc(Oc3ccccc3S(F)(F)(F)(F)F)c(OC(F)(F)F)c2)c2c[nH]nc2N1` (stereo not drawn) [Example 58, 4-{4-[2-(pentafluoro-λ^6-sulfanyl)phenoxy]-3-(trifluoromethoxy)phenyl}-2H,4H,5H,6H,7H-pyrazolo[3,4-b]pyridin-6-one], the IC50 is 10 to 100 nM.

For `O=C1CC(c2ccc(Oc3ccccc3S(F)(F)(F)(F)F)cc2)c2c[nH]nc2N1` (stereo not drawn) [Example 59, 4-{4-[2-(pentafluoro-λ^6-sulfanyl)phenoxy]phenyl}-2H,4H,5H,6H,7H-pyrazolo[3,4-b]pyridin-6-one], the IC50 was 100 to 1000 nM.

For the compound `COc1cc(C2CC(=O)Nc3n[nH]cc32)ccc1Oc1cccc(Br)c1` (stereo not drawn) [Example 14, 4-[4-(3-bromophenoxy)-3-methoxyphenyl]-2H,4H,5H,6H,7H-pyrazolo[3,4-b]pyridin-6-one], the IC50 is 100 to 1000 nM.

Regarding `COc1cc(C2CC(=O)Nc3n[nH]cc32)ccc1Oc1ccc(C)cc1C` (stereo not drawn) [Example 66, 4-[4-(2,4-dimethylphenoxy)-3-methoxyphenyl]-2H,4H,5H,6H,7H-pyrazolo[3,4-b]pyridin-6-one], the IC50 was 100 to 1000 nM.

`COc1cc(C2CC(=O)Nc3n[nH]cc32)ccc1Oc1ccccc1C1CC1` (stereo not drawn) [Example 28, 4-[4-(2-cyclopropylphenoxy)-3-methoxyphenyl]-2H,4H,5H,6H,7H-pyrazolo[3,4-b]pyridin-6-one]: the IC50 is 10 to 100 nM.

For `COc1cc(C2CC(=O)Nc3n[nH]cc32)ccc1Oc1ccc(C(F)(F)F)cc1C` (stereo not drawn) [Example 65, 4-{3-methoxy-4-[2-methyl-4-(trifluoromethyl)phenoxy]phenyl}-2H,4H,5H,6H,7H-pyrazolo[3,4-b]pyridin-6-one], the IC50 is 100 to 1000 nM.

Turning to `COc1cc(C2CC(=O)Nc3n[nH]cc32)ccc1Oc1cccc(C2CC2)c1` (stereo not drawn) [Example 31, 4-[4-(3-cyclopropylphenoxy)-3-methoxyphenyl]-2H,4H,5H,6H,7H-pyrazolo[3,4-b]pyridin-6-one], the IC50 is 10 to 100 nM.

`COc1cc(C2CC(=O)Nc3n[nH]cc32)ccc1Oc1cc(C(F)F)cc(C(F)(F)F)c1` (single isomer, unassigned; (+)) [Example 85, (+)-4-{4-[3-(difluoromethyl)-5-(trifluoromethyl)phenoxy]-3-methoxyphenyl}-2H,4H,5H,6H,7H-pyrazolo[3,4-b]pyridin-6-one]: the IC50 was 100 to 1000 nM.

In the case of `COc1cc(C2CC(=O)Nc3n[nH]cc32)ccc1Oc1cc(C(F)F)cc(C(F)(F)F)c1` (stereo not drawn) [Example 77, 4-{4-[3-(difluoromethyl)-5-(trifluoromethyl)phenoxy]-3-methoxyphenyl}-2H,4H,5H,6H,7H-pyrazolo[3,4-b]pyridin-6-one], the IC50 is 10 to 100 nM.

Take `COC(=O)C1C(=O)Nc2n[nH]cc2C1c1ccc(Oc2cc(C(F)(F)F)cc(C(F)(F)F)c2)c(OC)c1` (stereo not drawn) [Example 72, methyl 4-{4-[3,5-bis(trifluoromethyl)phenoxy]-3-methoxyphenyl}-6-oxo-2H,4H,5H,6H,7H-pyrazolo[3,4-b]pyridine-5-carboxylate]: the IC50 was 100 to 1000 nM.

With `COc1cc(C2CC(=O)Nc3n[nH]cc32)ccc1Oc1cccc(C(C)(C)C)c1` (stereo not drawn) [Example 15, 4-[4-(3-tert-butylphenoxy)-3-methoxyphenyl]-2H,4H,5H,6H,7H-pyrazolo[3,4-b]pyridin-6-one], the IC50 is 10 to 100 nM.

Consider `COc1cc(C2CC(=O)Nc3n[nH]cc32)ccc1Oc1ccc(C#N)c2ccccc12` (stereo not drawn) [Example 46, 4-(2-methoxy-4-{6-oxo-2H,4H,5H,6H,7H-pyrazolo[3,4-b]pyridin-4-yl}phenoxy)naphthalene-1-carbonitrile], for which the IC50 was 10 to 100 nM.

`COc1cc(C2CC(=O)Nc3n[nH]cc32)ccc1Oc1cccc(C)c1` (stereo not drawn) [Example 1, 4-[3-methoxy-4-(3-methylphenoxy)phenyl]-2H,4H,5H,6H, 7H-pyrazolo[3,4-b]pyridin-6-one]: the IC50 was 100 to 1000 nM.

For `COc1cc(C2CC(=O)Nc3n[nH]cc32)ccc1Oc1cc(Br)cc(C(F)(F)F)c1` (stereo not drawn) [Example 42, 4-{4-[3-bromo-5-(trifluoromethyl)phenoxy]-3-methoxyphenyl}-2H,4H,5H,6H,7H-pyrazolo[3,4-b]pyridin-6-one], the IC50 is 10 to 100 nM.

With `COc1cc(Oc2ccc(C3CC(=O)Nc4n[nH]cc43)cc2F)cc(C(F)(F)F)c1` (stereo not drawn) [Example 57, 4-{3-fluoro-4-[3-methoxy-5-(trifluoromethyl)phenoxy]phenyl}-2H,4H,5H,6H,7H-pyrazolo[3,4-b]pyridin-6-one], the IC50 is 10 to 100 nM.

As for `COc1cc(Oc2ccc(C3CC(=O)Nc4n[nH]cc43)cc2)cc(C(F)(F)F)c1` (stereo not drawn) [Example 54, 4-{4-[3-methoxy-5-(trifluoromethyl)phenoxy]phenyl}-2H,4H,5H,6H,7H-pyrazolo[3,4-b]pyridin-6-one], the IC50 was 10 to 100 nM.

Regarding `COc1cc(C2CC(=O)Nc3n[nH]cc32)ccc1Oc1ccccc1OC(F)(F)F` (stereo not drawn) [Example 12, 4-{3-methoxy-4-[2-(trifluoromethoxy)phenoxy]phenyl}-2H,4H,5H,6H,7H-pyrazolo[3,4-b]pyridin-6-one], the IC50 was 10 to 100 nM.

As for `O=C1CC(c2ccc(Oc3ccccc3C(F)(F)F)c(OC(F)(F)F)c2)c2c[nH]nc2N1` (stereo not drawn) [Example 60, 4-[3-(trifluoromethoxy)-4-[2-(trifluoromethyl)phenoxy]phenyl]-2H,4H,5H,6H,7H-pyrazolo[3,4-b]pyridin-6-one], the IC50 was 100 to 1000 nM.

Regarding `CCc1ccccc1Oc1ccc(C2CC(=O)Nc3n[nH]cc32)cc1OC` (stereo not drawn) [Example 20, 4-[4-(2-ethylphenoxy)-3-methoxyphenyl]-2H,4H,5H,6H,7H-pyrazolo[3,4-b]pyridin-6-one], the IC50 was 100 to 1000 nM.

As for `CC(C)(C)c1cc(C#N)ccc1Oc1ccc(C2CC(=O)Nc3n[nH]cc32)cc1` (stereo not drawn) [Example 53, 3-tert-butyl-4-(4-{6-oxo-2H,4H,5H,6H,7H-pyrazolo[3,4-b]pyridin-4-yl}phenoxy)benzonitrile], the IC50 is 10 to 100 nM.

With `COc1cc(C2CC(=O)Nc3n[nH]cc32)ccc1Oc1ccc(C(=O)O)cc1C(C)(C)C` (stereo not drawn) [Example 61, 3-tert-butyl-4-(2-methoxy-4-{6-oxo-2H,4H,5H,6H,7H-pyrazolo[3,4-b]pyridin-4-yl}phenoxy)benzoic acid], the IC50 is 10 to 100 nM.

For the compound `COc1cc(C2CC(=O)Nc3n[nH]cc32)ccc1Oc1ccc2c(c1)CCC2` (stereo not drawn) [Example 49, 4-[4-(2,3-dihydro-1H-inden-5-yloxy)-3-methoxyphenyl]-2H, 4H, 5H, 6H,7H-pyrazolo[3,4-b]pyridin-6-one], the IC50 was 100 to 1000 nM.

As to `COc1cc(C2CC(=O)Nc3n[nH]cc32)ccc1Oc1ccc(C(F)(F)F)cc1C(F)F` (stereo not drawn) [Example 78, 4-{4-[2-(difluoromethyl)-4-(trifluoromethyl)phenoxy]-3-methoxyphenyl}-2H,4H,5H,6H,7H-pyrazolo[3,4-b]pyridin-6-one], the IC50 was 10 to 100 nM.

Take `COc1cc(C2CC(=O)Nc3c[nH]cc32)ccc1Oc1cc(C(F)(F)F)cc(C(F)(F)F)c1` (stereo not drawn) [Example 76, 4-{4-[3,5-bis(trifluoromethyl)phenoxy]-3-methoxyphenyl},2H,3H,4H,6H-pyrrolo[3,4-b]pyridin-2-one]: the IC50 is 10 to 100 nM.

Regarding `COc1cc(C2CC(=O)Nc3n[nH]cc32)ccc1Oc1cccc2c1CCC2` (stereo not drawn) [Example 47, 4-[4-(2,3-dihydro-1H-inden-4-yloxy)-3-methoxyphenyl]-2H,4H,5H,6H,7H-pyrazolo[3,4-b]pyridin-6-one], the IC50 was 10 to 100 nM.

Consider `COc1cc(C2CC(=O)Nc3n[nH]cc32)ccc1Oc1ccc(C#N)cc1C(F)(F)F` (stereo not drawn) [Example 2, 4-(2-methoxy-4-{6-oxo-2H,4H,5H,6H,7H-pyrazolo[3,4-b]pyridin-4-yl}phenoxy)-3-(trifluoromethyl)benzonitrile], for which the IC50 is 100 to 1000 nM.

Turning to `COc1cc(C2CC(=O)Nc3n[nH]cc32)ccc1Oc1cccc(OC(F)(F)F)c1` (stereo not drawn) [Example 17, 4-{3-methoxy-4-[3-(trifluoromethoxy)phenoxy]phenyl}-2H,4H,5H,6H,7H-pyrazolo[3,4-b]pyridin-6-one], the IC50 was 100 to 1000 nM.

Values taken from US20240150342A1, “ESTROGEN-RELATED RECEPTOR ALPHA MODULATORS” (LEAD PHARMA HOLDING B.V., priority 2019, published 2024).
